Consider 32 compounds from patent US20120004228A1, “Bis Aromatic Compounds for Use as LTC4 Synthase Inhibitors” (BIOLIPOX AB, priority 2009, published 2012).

This experiment deals with T1, Recombinant human LTC4 synthase (Homo sapiens, UniProt Q16873).
T1 construct: made in house; host or cells: Pichia pastoris ('Piccia pastoralis' [sic])
T1 sequence (Q16873 1-150): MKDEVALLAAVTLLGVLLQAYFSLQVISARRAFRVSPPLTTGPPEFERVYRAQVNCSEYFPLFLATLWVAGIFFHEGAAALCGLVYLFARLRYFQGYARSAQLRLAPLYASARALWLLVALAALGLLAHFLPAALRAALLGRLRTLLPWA
The experiment in a line: In vitro LTC4 synthase assay (LTA4 to LTC4, HTRF detection). The experiment is classed as biochemical. As for the experimental part: In the assay, LTC4 synthase catalyses the reaction where the substrate LTA4 is converted to LTC4. Recombinant human LTC4 synthase is expressed in Piccia pastoralis and the purified enzyme is dissolved in 25 mM tris-buffer pH 7.8 supplemented with 0.1 mM glutathione (GSH) and stored at −80° C. The assay is performed in phosphate buffered saline (PBS) pH 7.4 and 5 mM GSH in 384-well plates.
The following is added chronologically to each well:
1. 48 μL LTC4 synthase in PBS with 5 mM GSH. The total protein concentration in this solution is 0.5 μg/mL. 2. 1 μL inhibitor in DMSO (final concentration 10 μM). 3. Incubation of the plate at room temperature for 10 min. 4. 1 μL LTA4 (final concentration 2.5 μM). 5. Incubation of the plate at room temperature for 5 min. 6. 10 μL of the incubation mixture is analysed using homogenous time resolved fluorescent (HTRF) detection.
As a reminder, the IC50 is the concentration at which inhibition is half-maximal. In the case of `CN(c1ccc(Cl)cc1)c1ccc(C(=O)c2cc(Oc3ccc(Cl)cc3)cc(C(=O)O)c2)cc1` [8:21, 3-(4-Chlorophenoxy)-5-{4-[(4-chlorophenyl)(methyl)amino]benzoyl}benzoic acid], the IC50 was found to be 49 nM.
Then `CN(c1ccc(Cl)cc1)c1ccc(C(=O)c2cc(C(=O)O)cc(N(C)c3ccc(Cl)cc3)c2)nc1` [9:3, 3-[(4-Chlorophenyl)(methyl)amino]-5-{5-[(4-chlorophenyl)(methyl)amino]-picolinoyl}benzoic acid], with 45 nM; and `CN(c1ccc(Cl)cc1)c1ccc(C(=O)c2cc(Nc3ccc(Cl)cc3)cc(C(=O)O)c2)nc1` [9:4, 3-{5-[(4-Chlorophenyl)(methyl)amino]picolinoyl}-5-(4-chlorophenylamino)-benzoic acid], with 70 nM.
Under `CN(c1ccc(Cl)cc1)c1ccc(C(=O)c2cc(Nc3ccccc3Cl)cc(C(=O)O)c2)nc1` [9:5, 3-{5-[(4-Chlorophenyl)(methyl)amino]picolinoyl}-5-(2-chlorophenylamino)-benzoic acid] stands 160 nM; under `CN(c1ccc(Cl)cc1)c1ccc(C(=O)c2cc(C(=O)O)cc(N(C)c3ccccc3)c2)nc1` [9:6, 3-{5-[(4-Chlorophenyl)(methyl)amino]picolinoyl}-5-[methyl(phenyl)amino]-benzoic acid], 33 nM.
Under `C#CCN(c1ccccc1)c1cc(C(=O)O)cc(C(=O)c2ccc(N(C)c3ccc(Cl)cc3)cn2)c1` [9:8, 3-{5-[(4-Chlorophenyl)(methyl)amino]picolinoyl}-5-[phenyl(prop-2-ynyl)amino]-benzoic acid] stands 43 nM; under `COc1ccc(CN(C)c2cc(C(=O)O)cc(C(=O)c3ccc(N(C)c4ccc(Cl)cc4)cn3)c2)cc1` [9:9, 3-{5-[(4-Chlorophenyl)(methyl)amino]picolinoyl}-5-[(4-methoxybenzyl)(methyl)-amino]benzoic acid], 123 nM.
As to `CN(Cc1cccc(Cl)c1)c1cc(C(=O)O)cc(C(=O)c2ccc(N(C)c3ccc(Cl)cc3)cn2)c1` [9:10, 3-[(3-Chlorobenzyl)(methyl)amino]-5-{5-[(4-chlorophenyl)(methyl)amino]-picolinoyl}benzoic acid], the 50% inhibitory concentration (IC50) was 75 nM.
Then `CN(c1ccc(Cl)cc1)c1ccc(C(=O)c2cc(Nc3ccccc3)cc(C(=O)O)c2)nc1` [9:11, 3-{5-[(4-Chlorophenyl)(methyl)amino]picolinoyl}-5-(phenylamino)benzoic acid], with 61 nM.
Under `CN(Cc1ccc(Cl)cc1)c1cc(C(=O)O)cc(C(=O)c2ccc(N(C)c3ccc(Cl)cc3)cn2)c1` [9:12, 3-((4-Chlorobenzyl)(methyl)amino)-5-{5-[(4-chlorophenyl)(methyl)amino]-picolinoyl}benzoic acid] stands 170 nM; under `CN(c1ccc(Cl)cc1)c1ccc(C(=O)c2cc(C(=O)O)cc(N3CCc4ccccc4C3)c2)nc1` [9:13, 3-{5-[(4-Chlorophenyl)(methyl)amino]picolinoyl}-5-(1,2,3,4-tetrahydroiso-quinolin-2-yl)benzoic acid], 531 nM.
Turning to `CN(Cc1ccc2c(c1)OCO2)c1cc(C(=O)O)cc(C(=O)c2ccc(N(C)c3ccc(Cl)cc3)cn2)c1` [9:14, 3-{5-[(4-Chlorophenyl)(methyl)amino]picolinoyl}-5-[(3,4-methylenedioxy-benzyl)(methyl)amino]benzoic acid], the IC50 turned out to be 103 nM.
Under `CN(c1ccc(Cl)cc1)c1ccc(C(=O)c2cc(C(=O)O)cc(N(CC3(C)COC3)c3ccccc3)c2)nc1` [9:15, 3-{5-[(4-Chlorophenyl)(methyl)amino]picolinoyl}-5-{[(3-methyloxetan-3-yl)-methyl](phenyl)amino}benzoic acid] stands 50 nM.
Then `CN(c1ccc(Cl)cc1)c1ccc(C(=O)c2cc(C(=O)O)cc(N(C(=O)CC(C)(C)C)c3ccccc3)c2)nc1` [9:18, 3-{5-[(4-Chlorophenyl)(methyl)amino]picolinoyl}-5-(3,3-dimethyl-N-phenyl-butylamido)benzoic acid], with 160 nM.
As to `CC(=O)N(c1ccccc1)c1cc(C(=O)O)cc(C(=O)c2ccc(N(CC3CC3)c3ccc(Cl)cc3)cn2)c1` [9:19, 3-{5-[(4-Chlorophenyl)(cyclopropylmethyl)amino]picolinoyl}-5-(N-phenylacet-amido)benzoic acid], the half-inhibitory concentration (IC50) was found to be 40 nM.
As to `O=C(O)c1cc(Nc2ccccc2)cc(C(=O)c2ccc(N(CC3CC3)c3ccc(Cl)cc3)cn2)c1` [9:20, 3-{5-[(4-Chlorophenyl)(cyclopropylmethyl)amino]picolinoyl}-5-(phenylamino)-benzoic acid], the IC50 is 30 nM.
Then `COc1cccc(N(C)c2cc(C(=O)O)cc(C(=O)c3ccc(N(C)c4ccc(Cl)cc4)cn3)c2)c1` [9:21, 3-{5-[(4-Chlorophenyl)(methyl)amino]picolinoyl}-5-[(3-methoxyphenyl)(methyl)-amino]benzoic acid], with 274 nM; and `COc1ccccc1N(C)c1cc(C(=O)O)cc(C(=O)c2ccc(N(C)c3ccc(Cl)cc3)cn2)c1` [9:22, 3-{5-[(4-Chlorophenyl)(methyl)amino]picolinoyl}-5-[(2-methoxyphenyl)(methyl)-amino]benzoic acid], with 366 nM.
On to `COc1ccccc1N(C(C)=O)c1cc(C(=O)O)cc(C(=O)c2ccc(N(C)c3ccc(Cl)cc3)cn2)c1` [9:24, 3-{5-[(4-Chlorophenyl)(methyl)amino]picolinoyl}-5-[N-(2-methoxyphenyl)-acetamido]benzoic acid], for which the half-inhibitory concentration (IC50) worked out at 932 nM.
For the compound `COc1ccc(N(CC2(C)COC2)c2cc(C(=O)O)cc(C(=O)c3ccc(N(C)c4ccc(Cl)cc4)cn3)c2)cc1` [9:25, 3-{5-[(4-Chlorophenyl)(methyl)amino]picolinoyl}-5-{(4-methoxyphenyl)-[(3-methyloxetan-3-yl)methyl]amino}benzoic acid], the half-inhibitory concentration (IC50) was 88 nM.
Under `COCC(=O)N(c1ccccc1)c1cc(C(=O)O)cc(C(=O)c2ccc(N(C)c3ccc(Cl)cc3)cn2)c1` [9:26, 3-{5-[(4-Chlorophenyl)(methyl)amino]picolinoyl}-5-(2-methoxy-N-phenylacet-amido)benzoic acid] stands 466 nM.
Under `COc1ccc(N(C)c2cc(C(=O)O)cc(C(=O)c3ccc(N(C)c4ccc(Cl)cc4)cn3)c2)cc1` [9:28, 3-{5-[(4-Chlorophenyl)(methyl)amino]picolinoyl}-5-[(4-methoxyphenyl)(methyl)-amino]benzoic acid] stands 137 nM; under `CN(c1ccc(Cl)cc1)c1ccc(C(=O)c2cc(Nc3ccc4c(c3)OCO4)cc(C(=O)O)c2)nc1` [9:29, 3-{5-[(4-Chlorophenyl)(methyl)amino]picolinoyl}-5-(3,4-methylenedioxy-phenylamino)benzoic acid], 420 nM; under `CN(c1ccc(Cl)cc1)c1ccc(C(=O)c2cc(C(=O)O)cc(N(C)c3ccc4c(c3)OCO4)c2)nc1` [9:30, 3-{5-[(4-Chlorophenyl)(methyl)amino]picolinoyl}-5-[(3,4-methylenedioxy-phenyl)(methyl)amino]benzoic acid], 197 nM.
Then `COc1cccc(Nc2cc(C(=O)O)cc(C(=O)c3ccc(N(C)c4ccc(Cl)cc4)cn3)c2)c1` [9:31, 3-{5-[(4-Chlorophenyl)(methyl)amino]picolinoyl}-5-(3-methoxyphenylamino)-benzoic acid], with 525 nM.
As for `COc1ccc(Nc2cc(C(=O)O)cc(C(=O)c3ccc(N(C)c4ccc(Cl)cc4)cn3)c2)cc1` [9:32, 3-{5-[(4-Chlorophenyl)(methyl)amino]picolinoyl}-5-(4-methoxyphenylamino)-benzoic acid], the 50% inhibitory concentration (IC50) stood at 353 nM.
Then `CN(c1ccc(Cl)cc1)c1ccc(C(=O)c2cc(Nc3ccc4c(c3)OCCO4)cc(C(=O)O)c2)nc1` [9:33, 3-{5-[(4-Chlorophenyl)(methyl)amino]picolinoyl}-5-(3,4-ethylenedioxy-phenylamino)benzoic acid], with 463 nM.
`CN(c1ccc(Cl)cc1)c1ccc(C(=O)c2cc(C(=O)O)cc(N(C)c3ccc4c(c3)OCCO4)c2)nc1` [9:34, 3-{5-[(4-Chlorophenyl)(methyl)amino]picolinoyl}-5-[(3,4-ethylenedioxy-phenyl)(methyl)amino]benzoic acid]: the half-inhibitory concentration (IC50) worked out at 216 nM.
Under `CN(c1ccc(Cl)cc1)c1ccc(C(=O)c2cc(C(=O)O)cc(N(CCCCO)c3ccc4c(c3)OCCO4)c2)nc1` [9:35, 3-{5-[(4-Chlorophenyl)(methyl)amino]picolinoyl}-5-[(3,4-ethylenedioxyphenyl)-(4-hydroxybutyl)amino]benzoic acid] stands 70 nM; under `CN(c1ccc(Cl)cc1)c1ccc(C(=O)c2cc(C(=O)O)cc(N3CCOCC3)c2)nc1` [9:36, 3-{5-[(4-Chlorophenyl)(methyl)amino]picolinoyl}-5-(4-morpholinyl)benzoic acid], 1000 nM; under `CN(c1ccc(Cl)cc1)c1ccc(C(=O)c2cc(C(=O)O)cc(N3CCCCC3)c2)nc1` [9:37, 3-{5-[(4-Chlorophenyl)(methyl)amino]picolinoyl}-5-(1-piperidinyl)benzoic acid], 506 nM.
Then `CN(c1ccc(Cl)cc1)c1ccc(C(=O)c2cc(C(=O)O)cc(N(C(=O)CO)c3ccccc3)c2)nc1` [9:38, 3-{5-[(4-Chlorophenyl)(methyl)amino]picolinoyl}-5-(2-hydroxy-N-phenylacet-amido)benzoic acid], with 470 nM.
